Values quoted from earlier work in US20200016283A1, “COMBINATION THERAPY COMPRISING A RADIOPHARMACEUTICAL AND A DNA-REPAIR INHIBITOR” (Bayer AS, priority 2017, published 2020).

Details: complexed at ambient temperature in aqueous solutions

Stability of the Th-227 complex: highly stable
Compound: Cn1ccc(C(=O)NCCN(CCNC(=O)c2ccn(C)c(=O)c2O)CC(Cc2ccc(CC(=O)CCC(=O)O)cc2)CN(CCNC(=O)c2ccn(C)c(=O)c2O)CCNC(=O)c2ccn(C)c(=O)c2O)c(O)c1=O [IV′]
